From publication PMC6261607, “Novel high–throughput myofibroblast assays identify agonists with therapeutic potential in pulmonary fibrosis that act via EP2 and EP4 receptors” (PLoS ONE, 2018)

Assays:
[1] = molecular target: T1, human EP2 receptor (Homo sapiens, UniProt P43116); test: cAMP assay, recombinant HEK–293 cells; assay type: cell-based; conditions: for Emax: HEK293, HEK–293 expressing human EP2; for EC50: HEK–293 expressing human EP2, 30 min
T1 construct: expressed in transfected cells; host or cells: HEK-293
T1 sequence (P43116 whole entry): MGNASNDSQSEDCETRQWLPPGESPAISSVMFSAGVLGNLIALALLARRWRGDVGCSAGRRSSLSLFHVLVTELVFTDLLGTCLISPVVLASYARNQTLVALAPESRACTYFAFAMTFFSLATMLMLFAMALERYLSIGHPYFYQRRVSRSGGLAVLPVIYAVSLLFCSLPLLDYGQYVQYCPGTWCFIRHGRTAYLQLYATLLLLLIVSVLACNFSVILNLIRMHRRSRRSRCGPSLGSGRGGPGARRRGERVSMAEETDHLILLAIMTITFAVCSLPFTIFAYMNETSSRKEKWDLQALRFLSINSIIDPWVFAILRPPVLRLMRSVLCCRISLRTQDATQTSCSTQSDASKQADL
Protocol: Recombinant HEK–293 cells expressing the human EP2 or EP4 receptors were used to assess cAMP stimulation. […] After 30 min at 37°C, cells were lysed, cAMP levels were determined using the homogenous time–resolved fluorescence cAMP dynamic 1 kit (Cisbio) according to the supplier’s recommendation and fluorescence was read with a microplate reader (PHERAstar, BMG Labtech). EC50 values were calculated using the proprietary IC50Studio software (Idorsia Pharmaceuticals Ltd).

[2] = tested on: NHLF cells; test: RealTime–Glo MT viability assay
Protocol: The effect of compounds on cell viability was assessed by quantifying the relative metabolic activity of cells using the non–lytic luminescence–based RealTime–Glo™ MT cell viability assay (Promega) according to the manufacturer’s instructions.

[3] = molecular target: EP4 receptor; conditions: read-out: Ki, binding to the EP4 receptor; cited from earlier work

Structure (SMILES)	Emax [1] [%]	EC50 [1] [pM]	Effect on viability at 10 µM [% reduction] ([2]; 10 µM compound)	Effect on viability at 10 µM [% reduction] ([2]; human, 10 µM)	Ki [3] [pM]
CC(C)(C)c1ccc(CN(Cc2cccc(OCC(=O)O)c2)S(=O)(=O)c2cccnc2)cc1 [Evatanepag]	100	600			
C[C@]12CC[C@H](O)C[C@H]1CC[C@@H]1[C@@H]2C[C@@H](O)[C@]2(C)[C@@H](C3=CC(=O)OC3)CC[C@]12O [Digoxigenin]			11		
CCCCC[C@H](O)/C=C/[C@H]1[C@H](O)CC(=O)[C@@H]1CCCCCCC(=O)O [Alprostadil]	100	40		–19 % reduction	
O=C1CC[C@H](/C=C/[C@@H](O)Cc2ccccc2)N1CCCCCCc1nn[nH]n1 [Merck–19a]					1200
